# Measurements from ChEMBL document CHEMBL1201862, “PubChem BioAssay data set” (2004).
#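 Briefly, cells in 96-well plates were exposed to five compound concentrations for 48 h, and endpoints were estimated by linear interpolation. The concentration for 50% growth inhibition is given as GI50.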 Calls of active or inactive are those of the source. No stated cut-off is given here; in the data, active = GI50 up to about 1.1 µM and inactive = higher.
# What was measured:
# Test in all cases: NCI anticancer screen, dose series, 48 h
# 786-0 = system: 786-0
# A498 = system: A498
# A549 = system: A549
# ACHN = system: ACHN
# CCRF-CEM = system: CCRF-CEM
# COLO 205 = system: COLO 205
# DLD-1 = system: DLD-1
# DMS-114 = system: DMS-114
# DMS-273 = system: DMS-273
# EKVX = system: EKVX
# HCT-116 = system: HCT-116
# HCT-15 = system: HCT-15
# HL-60 = system: HL-60
# HOP-18 = system: HOP-18
# HOP-62 = system: HOP-62
# HT-29 = system: HT-29
# IGROV-1 = system: IGROV-1
# K562 = system: K562
# KM12 = system: KM12
# LXFL 529 = system: LXFL 529
# M14 = system: M14
# M19-MEL = system: M19-MEL
# MOLT-4 = system: MOLT-4
# Malme-3M = system: Malme-3M
# NCI-H23 = system: NCI-H23
# NCI-H460 = system: NCI-H460
# NCI-H522 = system: NCI-H522
# OVCAR-3 = system: OVCAR-3
# OVCAR-4 = system: OVCAR-4
# OVCAR-5 = system: OVCAR-5
# OVCAR-8 = system: OVCAR-8
# RPMI-8226 = system: RPMI-8226
# RXF 393 = system: RXF 393
# SF-268 = system: SF-268
# SF-295 = system: SF-295
# SF-539 = system: SF-539
# SK-MEL-28 = system: SK-MEL-28
# SK-MEL-2 = system: SK-MEL-2
# SK-MEL-5 = system: SK-MEL-5
# SK-OV-3 = system: SK-OV-3
# SN12C = system: SN12C
# SNB-19 = system: SNB-19
# SNB-75 = system: SNB-75
# SNB-78 = system: SNB-78
# SR = system: SR
# SW-620 = system: SW-620
# TK-10 = system: TK-10
# U-251 = system: U-251
# UACC-257 = system: UACC-257
# UACC-62 = system: UACC-62
# UO-31 = system: UO-31
# CAKI-1 = system: CAKI-1
# HOP-92 = system: HOP-92
# KM-20L2 = system: KM-20L2
# NCI-H226 = system: NCI-H226
# HCC 2998 = system: HCC 2998
# LOX IMVI = system: LOX IMVI
# XF498 = system: XF498
smiles,measurement,setting,value
CN(C)CCC(/C=C/c1ccccc1)=N\Nc1ccc(Cl)cc1Cl,GI50,786-0,12.9 µM (inactive)
same,GI50,A498,16.6 µM (inactive)
same,GI50,A549,15.6 µM (inactive)
same,GI50,ACHN,12.7 µM (inactive)
same,GI50,CCRF-CEM,10.5 µM (inactive)
same,GI50,COLO 205,14.6 µM (inactive)
same,GI50,DLD-1,14.1 µM (inactive)
same,GI50,DMS-114,14.8 µM (inactive)
same,GI50,DMS-273,13.2 µM (inactive)
same,GI50,EKVX,15 µM (inactive)
same,GI50,HCT-116,14.5 µM (inactive)
same,GI50,HCT-15,11.9 µM
same,GI50,HL-60,2.29 µM (inactive)
same,GI50,HOP-18,10.2 µM (inactive)
same,GI50,HOP-62,13.6 µM (inactive)
same,GI50,HT-29,14.2 µM (inactive)
same,GI50,IGROV-1,8.02 µM (inactive)
same,GI50,K562,13.1 µM (inactive)
same,GI50,KM12,15.1 µM (inactive)
same,GI50,LXFL 529,10.9 µM (inactive)
same,GI50,M14,13.7 µM (inactive)
same,GI50,M19-MEL,15.6 µM (inactive)
same,GI50,MOLT-4,10.9 µM (inactive)
same,GI50,Malme-3M,18.5 µM (inactive)
same,GI50,NCI-H23,17.1 µM (inactive)
same,GI50,NCI-H460,13.8 µM (inactive)
same,GI50,NCI-H522,15.3 µM (inactive)
same,GI50,OVCAR-3,14.1 µM (inactive)
same,GI50,OVCAR-4,14.7 µM (inactive)
same,GI50,OVCAR-5,15.5 µM (inactive)
same,GI50,OVCAR-8,16.3 µM (inactive)
same,GI50,RPMI-8226,11.7 µM (inactive)
same,GI50,RXF 393,8.77 µM (inactive)
same,GI50,SF-268,12.2 µM (inactive)
same,GI50,SF-295,16.6 µM (inactive)
same,GI50,SF-539,15.2 µM (inactive)
same,GI50,SK-MEL-28,14.3 µM (inactive)
same,GI50,SK-MEL-2,13.3 µM (inactive)
same,GI50,SK-MEL-5,13.4 µM (inactive)
same,GI50,SK-OV-3,10.8 µM (inactive)
same,GI50,SN12C,11.1 µM (inactive)
same,GI50,SNB-19,15.5 µM (inactive)
same,GI50,SNB-75,6.1 µM (inactive)
same,GI50,SNB-78,13.5 µM (inactive)
same,GI50,SR,7.57 µM (inactive)
same,GI50,SW-620,14 µM (inactive)
same,GI50,TK-10,14.2 µM (inactive)
same,GI50,U-251,11.6 µM (inactive)
same,GI50,UACC-257,13.9 µM (inactive)
same,GI50,UACC-62,9.35 µM (inactive)
same,GI50,UO-31,1.73 µM (inactive)
CCOc1ccc2c(c1)[n+]([O-])c(-c1ccc(Cl)cc1)c(N)[n+]2[O-],GI50,786-0,> 100 µM (inactive)
same,GI50,A498,> 100 µM (inactive)
same,GI50,A549,> 100 µM (inactive)
same,GI50,ACHN,> 100 µM (inactive)
same,GI50,CAKI-1,> 100 µM (inactive)
same,GI50,COLO 205,> 100 µM (inactive)
same,GI50,DLD-1,> 100 µM (inactive)
same,GI50,DMS-114,68.7 µM (inactive)
same,GI50,DMS-273,> 100 µM (inactive)
same,GI50,EKVX,95.7 µM (inactive)
same,GI50,HCT-116,> 100 µM (inactive)
same,GI50,HCT-15,> 100 µM
same,GI50,HL-60,44 µM (inactive)
same,GI50,HOP-18,> 100 µM (inactive)
same,GI50,HOP-62,> 100 µM (inactive)
same,GI50,HOP-92,> 100 µM (inactive)
same,GI50,HT-29,> 100 µM (inactive)
same,GI50,IGROV-1,> 100 µM (inactive)
same,GI50,K562,> 100 µM (inactive)
same,GI50,KM-20L2,> 100 µM (inactive)
same,GI50,KM12,> 100 µM (inactive)
same,GI50,LXFL 529,87.7 µM (inactive)
same,GI50,M14,> 100 µM (inactive)
same,GI50,MOLT-4,44.3 µM (inactive)
same,GI50,Malme-3M,> 100 µM (inactive)
same,GI50,NCI-H226,> 100 µM (inactive)
same,GI50,NCI-H23,> 100 µM (inactive)
same,GI50,NCI-H460,> 100 µM (inactive)
same,GI50,NCI-H522,34.4 µM (inactive)
same,GI50,OVCAR-3,> 100 µM (inactive)
same,GI50,OVCAR-4,> 100 µM (inactive)
same,GI50,OVCAR-5,> 100 µM (inactive)
same,GI50,OVCAR-8,> 100 µM (inactive)
same,GI50,RPMI-8226,10.8 µM (inactive)
same,GI50,SF-268,> 100 µM (inactive)
same,GI50,SF-295,> 100 µM (inactive)
same,GI50,SF-539,> 100 µM (inactive)
same,GI50,SK-MEL-28,> 100 µM (inactive)
same,GI50,SK-MEL-2,> 100 µM (inactive)
same,GI50,SK-MEL-5,> 100 µM (inactive)
same,GI50,SK-OV-3,> 100 µM (inactive)
same,GI50,SN12C,> 100 µM (inactive)
same,GI50,SNB-19,> 100 µM (inactive)
same,GI50,SNB-75,85.1 µM (inactive)
same,GI50,SNB-78,> 100 µM (inactive)
same,GI50,SR,> 100 µM (inactive)
same,GI50,SW-620,> 100 µM (inactive)
same,GI50,U-251,> 100 µM (inactive)
same,GI50,UACC-257,> 100 µM (inactive)
same,GI50,UO-31,67.1 µM (inactive)
O=c1sc2ccccc2n1CC1CS1 (centres undefined),GI50,A549,> 100 µM (inactive)
same,GI50,ACHN,> 100 µM (inactive)
same,GI50,CAKI-1,> 100 µM (inactive)
same,GI50,CCRF-CEM,> 100 µM (inactive)
same,GI50,COLO 205,> 100 µM (inactive)
same,GI50,DMS-114,> 100 µM (inactive)
same,GI50,DMS-273,> 100 µM (inactive)
same,GI50,EKVX,> 100 µM (inactive)
same,GI50,HCC 2998,> 100 µM (inactive)
same,GI50,HCT-116,> 100 µM (inactive)
same,GI50,HCT-15,> 100 µM
same,GI50,HL-60,> 100 µM (inactive)
same,GI50,HOP-62,> 100 µM (inactive)
same,GI50,HOP-92,> 100 µM (inactive)
same,GI50,HT-29,> 100 µM (inactive)
same,GI50,IGROV-1,> 100 µM (inactive)
same,GI50,K562,> 100 µM (inactive)
same,GI50,KM-20L2,> 100 µM (inactive)
same,GI50,KM12,> 100 µM (inactive)
same,GI50,LOX IMVI,> 100 µM (inactive)
same,GI50,M14,> 100 µM (inactive)
same,GI50,M19-MEL,> 100 µM (inactive)
same,GI50,MOLT-4,> 100 µM (inactive)
same,GI50,Malme-3M,> 100 µM (inactive)
same,GI50,NCI-H226,> 100 µM (inactive)
same,GI50,NCI-H460,> 100 µM (inactive)
same,GI50,NCI-H522,> 100 µM (inactive)
same,GI50,OVCAR-3,> 100 µM (inactive)
same,GI50,OVCAR-4,> 100 µM (inactive)
same,GI50,OVCAR-5,> 100 µM (inactive)
same,GI50,OVCAR-8,> 100 µM (inactive)
same,GI50,RPMI-8226,> 100 µM (inactive)
same,GI50,RXF 393,> 100 µM (inactive)
same,GI50,SF-268,> 100 µM (inactive)
same,GI50,SF-295,> 100 µM (inactive)
same,GI50,SF-539,> 100 µM (inactive)
same,GI50,SK-MEL-28,> 100 µM (inactive)
same,GI50,SK-MEL-2,> 100 µM (inactive)
same,GI50,SK-OV-3,> 100 µM (inactive)
same,GI50,SN12C,> 100 µM (inactive)
same,GI50,SNB-19,> 100 µM (inactive)
same,GI50,SR,> 100 µM (inactive)
same,GI50,SW-620,> 100 µM (inactive)
same,GI50,TK-10,> 100 µM (inactive)
same,GI50,UACC-62,> 100 µM (inactive)
same,GI50,UO-31,> 100 µM (inactive)
same,GI50,XF498,> 100 µM (inactive)
CC1(C)Cc2nnsc2C2=C1C(=O)CCS2,GI50,786-0,> 100 µM (inactive)
same,GI50,A549,> 100 µM (inactive)
same,GI50,ACHN,> 100 µM (inactive)
same,GI50,CAKI-1,> 100 µM (inactive)
same,GI50,CCRF-CEM,> 100 µM (inactive)
same,GI50,COLO 205,> 100 µM (inactive)
same,GI50,DLD-1,> 100 µM (inactive)
same,GI50,DMS-114,> 100 µM (inactive)
same,GI50,DMS-273,> 100 µM (inactive)
same,GI50,EKVX,> 100 µM (inactive)
same,GI50,HCC 2998,> 100 µM (inactive)
same,GI50,HCT-15,> 100 µM
same,GI50,HL-60,> 100 µM (inactive)
same,GI50,HOP-18,> 100 µM (inactive)
same,GI50,HOP-62,> 100 µM (inactive)
same,GI50,HOP-92,32.7 µM (inactive)
same,GI50,HT-29,> 100 µM (inactive)
same,GI50,IGROV-1,> 100 µM (inactive)
same,GI50,K562,> 100 µM (inactive)
same,GI50,KM-20L2,> 100 µM (inactive)
same,GI50,KM12,> 100 µM (inactive)
same,GI50,LOX IMVI,> 100 µM (inactive)
same,GI50,LXFL 529,> 100 µM (inactive)
same,GI50,M14,> 100 µM (inactive)
same,GI50,MOLT-4,> 100 µM (inactive)
same,GI50,Malme-3M,> 100 µM (inactive)
same,GI50,NCI-H23,> 100 µM (inactive)
same,GI50,NCI-H460,> 100 µM (inactive)
same,GI50,NCI-H522,> 100 µM (inactive)
same,GI50,OVCAR-3,> 100 µM (inactive)
same,GI50,OVCAR-4,> 100 µM (inactive)
same,GI50,OVCAR-5,> 100 µM (inactive)
same,GI50,OVCAR-8,> 100 µM (inactive)
same,GI50,RPMI-8226,> 100 µM (inactive)
same,GI50,RXF 393,> 100 µM (inactive)
same,GI50,SF-268,> 100 µM (inactive)
same,GI50,SF-295,> 100 µM (inactive)
same,GI50,SF-539,> 100 µM (inactive)
same,GI50,SK-MEL-28,> 100 µM (inactive)
same,GI50,SK-MEL-2,> 100 µM (inactive)
same,GI50,SK-MEL-5,> 100 µM (inactive)
same,GI50,SK-OV-3,> 100 µM (inactive)
same,GI50,SN12C,> 100 µM (inactive)
same,GI50,SNB-19,> 100 µM (inactive)
same,GI50,SNB-75,24 µM (inactive)
same,GI50,SW-620,> 100 µM (inactive)
same,GI50,TK-10,> 100 µM (inactive)
same,GI50,U-251,60.4 µM (inactive)
same,GI50,UACC-257,> 100 µM (inactive)
same,GI50,UACC-62,> 100 µM (inactive)
same,GI50,UO-31,> 100 µM (inactive)
